Experimental data published in PMC12356538, “Targeting the SARS-CoV‑2 RNA Translation Initiation Element SL1 by Molecules of Low Molecular Weight” (Journal of the American Chemical Society, 2025).
pKd: −log10 of the molar value. Read-outs that look alike come from different tables or passages of the source.

Tests used:
[1] = system: SARS-CoV-2 SL1 RNA (SL1 wt); type: binding; conditions: for FBS binding to SL1, in words: ligand-detected NMR; for FBS binding to SL1, in words / Rank / CSP values relative to A.2: SL1 wt; for wLOGSY factor / T2 reduction [%] / CSP [Hz]: 10 μM SL1 wt, 200 μM ligand; for wLOGSY factor / T2 reduction [%]: pH 6.2; for T2 reduction [%]: CPMG 100 vs 5 ms; for Rank: FBS ranking from summed ranks of CSP, wLOGSY and T2 results; for CSP [Hz]: ligand 1H CSP, [RNA]:[ligand] 1:20, pH 6.2; for CSP values relative to A.2: ligand CSP
SL1 Δbulge RNA = type: binding, SARS-CoV-2
SL1 wt RNA = experiment: NMR-based KD estimation, ligand-detected 1D-1H titration; type: binding, SARS-CoV-2; conditions: Suppl. Table 7; for pKd: read-out: KDest
[2] = ligand constant at 100, SL1 wt RNA concentration 0-250
[3] = ligand constant at 100, SL1 wt RNA concentration 0-200

SMILES | FBS binding to SL1, in words [1] | FBS result (CSP, wLOGSY, T2 reduction) in words (SL1 Δbulge RNA) | wLOGSY factor [1] | T2 reduction [%] [1] [%] | Rank [1] | CSP [Hz] [1] [Hz] | other results
CC(=O)Nc1nc2ccccc2s1 [A.6] | only minor effects | – | – | – | – | – | –
CC(C)(C)C(=O)Nc1nc2ccccc2s1 [A.7] | only minor effects | – | – | – | – | – | –
CC(C)(C)C(=O)Nc1nc2ccc(Br)cc2s1 [A.8] | only minor effects | no effects | – | – | – | – | pKd (SL1 wt RNA; [2]): 3.60
CNC(=N)Nc1nc2ccc(O)cc2s1 [A.9] | – | no effects | 0.66 | 72.21 | 39 | 3.67 | pKd (SL1 wt RNA; [2]): 3.36
CN(C)CC(=O)Nc1nc2ccc(O)cc2s1 [A.12] | among the weakest binders | – | 0.15 | 69.00 | 40 | 10.02 | –
COc1cc(OC)c2nc(NC(=O)CN(C)C)sc2c1 [A.15] | – | – | 2.66 | 36.00 | 16 | 31.92 | CSP [Hz] (SL1 Δbulge RNA): 9.18 Hz; Rank (SL1 Δbulge RNA): 2; T2 reduction [%] (SL1 Δbulge RNA): 84.62%; wLOGSY factor (SL1 Δbulge RNA): 0.47; pKd (SL1 wt RNA; [3]): 3.97; CSP values relative to A.2 [1]: 2–3 times
CN(C)CC(=O)Nc1nc2ccc(Br)cc2s1 [A.16] | – | no effects | 0.74 | 83.00 | 17 | 27.60 | CSP values relative to A.2 [1]: 2–3 times
COc1ccc2nc(NC(=O)CN3CCN(C)CC3)sc2c1 [A.18] | positive effect on SL1 binding | no effects | 0.80 | 91.00 | 12 | 22.14 | –
CSc1ccc2nc(NC(=O)CN(C)C)sc2c1 [A.19] | – | no effects | 0.46 | 87.00 | 18 | 25.08 | –
COc1ccc2nc(NC(=O)CN(C)C)[nH]c2c1 [A.20] | higher score than that of A.2 | no effects | 0.62 | 87.00 | 15 | 25.08 | –
COc1ccc(-c2nnc(NC(=O)CN(C)C)s2)cc1 [A.21] | – | – | 1.43 | 95.00 | 13 | 12.57 | –
COc1ccc(-c2nnc(N)s2)cc1 [A.22] | no hit | – | – | – | – | – | –
COc1ccc(-c2nnc(N)s2)cc1OC [A.23] | no hit | – | – | – | – | – | –
CN(C)CC(=O)Nc1nc2ccc(N)cc2s1 [A.24] | among the weakest binders | no effects | 0.49 | 69.42 | 35 | 11.40 | –
COc1cc(OC)c2nc(NC(=O)CN(C)Cc3ccccc3)sc2c1 [A.25] | – | no effects | – | – | – | – | –
CN(C)CC(=O)Nc1nc2ccc(C(F)(F)F)cc2s1 [A.27] | – | no effects | – | – | – | – | –
CN(C)CC(=O)Nc1nc2ccc(OC(F)(F)F)cc2s1 [A.28] | – | no effects | 1.01 | 85.67 | 21 | 13.56 | –
COCCN(C)CC(=O)Nc1nc2ccc(OC)cc2s1 [A.30] | – | – | 0.14 | 77.69 | 35 | 10.44 | –
CN(C)CC(=O)Nc1nc2ccc(S(C)(=O)=O)cc2s1 [A.32] | – | no effects | 0.22 | 46.43 | 41 | 6.54 | –
COc1ccc2nc(NC(=O)CN(C)Cc3cncnc3)sc2c1 [A.33] | detrimental to binding to SL1 | – | – | – | – | – | –

SMILES | FBS binding to SL1, in words [1] | FBS result (CSP, wLOGSY, T2 reduction) in words (SL1 Δbulge RNA) | wLOGSY factor [1] | T2 reduction [%] [1] [%] | Rank [1] | CSP [Hz] [1] [Hz] | other results
COc1ccc2nc(N(C)C(=O)CN(C)C)sc2c1 [A.34] | slightly higher affinity | – | 2.15 | 81.54 | 13 | 19.56 | –
COc1ccc2nc(NC(=O)CN(C)C)oc2c1 [A.35] | did not show any improvement | no effects | – | – | – | – | –
COc1ccc2nc(NC(=O)CN3CCC[C@@H](N)C3)sc2c1 [A.37] | positive effect on SL1 binding | no effects | 1.01 | 100.00 | 3 | 24.72 | pKd (SL1 wt RNA; [3]): 3.77
COc1ccc2nc(NC(=O)CN(C)C)sc2n1 [A.38] | did not show any improvement | no effects | 1.22 | 73.62 | 23 | 16.14 | –
COc1ccc2nc(NC(=O)CN3CCN(C)CC3)[nH]c2c1 [A.40] | reduced activity | no effects | 0.68 | 41.23 | 37 | 9.48 | –
CN(C)CC(=O)Nc1nnc(-c2cc([N+](=O)[O-])cc([N+](=O)[O-])c2)s1 [A.41] | – | no effects | 0.59 | 93.02 | 21 | 13.68 | –
CN(C)CC(=O)Nc1nnc(-c2ccc([N+](=O)[O-])cc2)s1 [A.42] | – | no effects | 0.90 | 86.63 | 24 | 12.36 | –
CN(C)CC(=O)Nc1nnc(-c2cc(F)c(Cl)c([N+](=O)[O-])c2Cl)s1 [A.43] | – | no effects | 0.00 | 91.98 | 31 | 8.40 | –
COc1ccc2nc(NC(=O)CN(C)C3CC(C)(C)NC(C)(C)C3)sc2c1 [A.44] | – | no effects | 1.19 | 76.80 | 27 | 12.99 | –
COc1ccc2nc(NC(=O)CN3CCNCC3)sc2c1 [A.45] | positive effect on SL1 binding | – | 1.54 | 86.71 | 7 | 24.81 | CSP [Hz] (SL1 Δbulge RNA): 7.08 Hz; Rank (SL1 Δbulge RNA): 7; T2 reduction [%] (SL1 Δbulge RNA): 60.81%; wLOGSY factor (SL1 Δbulge RNA): 0.00; pKd (SL1 wt RNA; [3]): 3.79
CN(C)CC(=O)Nc1nc2cnc(Cl)nc2s1 [A.46] | did not show any improvement | no effects | – | – | – | – | –
COc1ncc2nc(NC(=O)CN(C)C)sc2n1 [A.47] | did not show any improvement | no effects | – | – | – | – | –
COc1ccc2nc(NC(=O)CN3CCC[C@H](NCCN(C)c4cccc(O)c4)C3)sc2c1 [A.48] | – | – | 0.00 | 74.30 | 32 | 17.28 | CSP [Hz] (SL1 Δbulge RNA): 2.16 Hz; Rank (SL1 Δbulge RNA): 9; T2 reduction [%] (SL1 Δbulge RNA): 0.59%; wLOGSY factor (SL1 Δbulge RNA): 10.82; pKd (SL1 wt RNA; [3]): 3.52
CCN(CCN[C@H]1CCCN(CC(=O)Nc2nc3ccc(OC)cc3s2)C1)c1cccc(O)c1 [A.49] | – | no effects | 0.00 | 72.85 | 34 | 15.15 | pKd (SL1 wt RNA; [3]): 3.28
COc1ccc2nc(NC(=O)CN3CCC[C@@H](NCCN(C)c4cccc(O)c4)C3)sc2c1 [A.50] | – | no effects | 0.00 | 72.85 | 33 | 15.17 | KDest (SL1 wt RNA; [3]): ambiguous
CCN(CCN[C@@H]1CCCN(CC(=O)Nc2nc3ccc(OC)cc3s2)C1)c1cccc(O)c1 [A.51] | – | – | 0.00 | 88.75 | 25 | 19.56 | CSP [Hz] (SL1 Δbulge RNA): 4.44 Hz; Rank (SL1 Δbulge RNA): 10; T2 reduction [%] (SL1 Δbulge RNA): 42.57%; wLOGSY factor (SL1 Δbulge RNA): 0.00; pKd (SL1 wt RNA; [3]): 3.13
COc1ccc2nc(NC(=O)CN3CCC[C@H](NCc4cccc(O)c4)C3)sc2c1 [A.52] | – | no effects | 0.00 | 83.78 | 29 | 20.01 | –
COc1ccc2nc(NC(=O)CN3CCC[C@@H](NCc4cccc(O)c4)C3)sc2c1 [A.53] | – | no effects | 0.00 | 85.86 | 28 | 21.03 | –
COc1cc(OC)c2nc(NC(=O)CN3CCC[C@H](N)C3)sc2c1 [A.54] | – | – | 0.00 | 100.00 | 4 | 34.62 | CSP [Hz] (SL1 Δbulge RNA): 3.60 Hz; Rank (SL1 Δbulge RNA): 5; T2 reduction [%] (SL1 Δbulge RNA): 88.68%; wLOGSY factor (SL1 Δbulge RNA): 0.00; pKd (SL1 wt RNA; [3]): 3.96
COc1cc(OC)c2nc(NC(=O)CN3CCC[C@@H](N)C3)sc2c1 [A.55] | – | no effects | 0.00 | 100.00 | 5 | 34.05 | pKd (SL1 wt RNA; [3]): 4.09
